This note sets out measurements from PubChem BioAssay AID720563 (Broad Institute, 2013).

Several values for one entry are separate records, joined by “and”; a condition that tells them apart may be missing. Equal entries are not always repeated. Activity calls are given as the source filed them.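 How the source made its calls: active means compounds whose fitted AC50 lies at or below twice their top valid test dose; inconclusive means flat curve between -70 and -30 percent, or unreliable curve fit; inactive means the rest.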

The experiment deals with Transforming acidic coiled-coil-containing protein 3 (Homo sapiens) (UniProt Q9Y6A5). Nature of the experiment: ARNT/TACC3 binding disruptors, dose response, biochemical, AlphaScreen, dry powder (AID 720563). As to conditions: AlphaScreen His-ARNT PAS-B/GST-TACC3 binding, luminescence; for activity change, negative = inhibition: at 68 µM (top of the series). On the technique in general: In Alpha technology, singlet oxygen from a donor bead excites a nearby acceptor bead.

As to `CC(C)CC(=O)NC(c1cccs1)c1ccc2cccnc2c1O` (stereo unspecified), the AC50 is 797 nM.

In the case of `CC1CCN(S(=O)(=O)c2ccc(C(=O)Nc3nnc(-c4cccs4)o3)cc2)CC1`, the AC50 was 49800 nM. Still for that read-out and setting: then `O=C(CSc1ccc(-c2ccccn2)nn1)Nc1ccccc1`, with 869 nM; and `COC(=O)c1ccc(NC(=O)CSc2ccc(-c3ccccn3)nn2)cc1`, with 630 nM. On the same count and under the same terms, then `CC1CCN(S(=O)(=O)c2ccc(C(=O)Nc3nnc(-c4ccno4)o3)cc2)CC1`, with 11400 nM; and `CC1CCCN(S(=O)(=O)c2ccc(C(=O)Nc3nnc(C4=COCCO4)o3)cc2)C1` (stereo unspecified), with 11200 nM; and `O=C(CSc1ccc(-c2ccccn2)nn1)Nc1nccs1`, with 262 nM. The same measure, in the same setting: in the case of `CC(C)C(=O)NC(c1ccco1)c1ccc2cccnc2c1O` (stereo unspecified) it was 452 nM. In the case of `O=C(Nc1nc(-c2ccncc2)cs1)c1cccc(S(=O)(=O)N2CCOCC2)c1`, the AC50 was 65900 nM. On to `Cc1nnc(NC(=O)c2ccc(S(=O)(=O)N3CCCCC3)cc2)o1`, for which the half-maximal activity concentration (AC50) is 14300 nM. As to `CCn1nc(-c2cccnc2)nc2c(=O)n(C)c(=O)nc1-2`, the concentration at half-maximal activity (AC50) was 78.4 nM. On the same count and under the same terms, in the case of `CC1CCN(S(=O)(=O)c2ccc(C(=O)Nc3nnc(C4CC4)o3)cc2)CC1` it was 16700 nM. Same read-out and setting: then `CC1CCN(S(=O)(=O)c2ccc(C(=O)Nc3nnc(C4=COCCO4)o3)cc2)CC1`, with 17600 nM; and `CSc1ccc(-c2nnc(NC(=O)c3ccc(S(=O)(=O)N4CCC(C)CC4)cc3)o2)cc1`, with 5810 nM; and `Cc1ccc(C(=O)Nc2nc(-c3ccccn3)cs2)o1`, with 806 nM. `COC(=O)Cc1cc(=O)n(-c2nc3ccccc3[nH]2)[nH]1`: the concentration at half-maximal activity (AC50) is 1910 nM. The same measure, in the same setting: in the case of `COc1ccc(-c2nnc(NC(=O)c3ccc(S(=O)(=O)N4CCC(C)CC4)cc3)o2)cc1` it was 17800 nM. On the same count and under the same terms, then `O=C(Nc1nnc(C2=COCCO2)o1)c1ccc(S(=O)(=O)N2CCCCC2)cc1`, with 19100 nM; and `CC(C)Cc1nnc(NC(=O)c2cccc(S(=O)(=O)N3CCOCC3)c2)s1`, with > 136000 nM (inactive). As to `c1ccc(-c2nc(-c3ccncc3)n[nH]2)nc1`, the AC50 is 368 nM and 190 nM. Same read-out and setting: in the case of `O=C(CSc1ccc(-c2ccccn2)nn1)N1CCCC1` it was 1680 nM; in that of `CC1CCN(S(=O)(=O)c2ccc(C(=O)Nc3nnc(-c4ccccc4)o3)cc2)CC1`, 20400 nM; in that of `O=C(CSc1n[nH]c(-c2ccccn2)n1)Nc1ccc(Cl)cc1`, 884 nM. `Cc1cccc(NC(=O)CSc2ccc(-c3ccccn3)nn2)c1C`: the half-maximal activity concentration (AC50) was 819 nM. Same read-out and setting: then `CC1CC(C)CN(S(=O)(=O)c2ccc(C(=O)Nc3nnc(C4=COCCO4)o3)cc2)C1` (stereo unspecified), with 35600 nM. The same measure, in the same setting: in the case of `CCc1cc2c(=O)[nH]c(-c3ccccn3)nc2s1` it was 1240 nM.

With `FC(F)(F)c1cc(-c2nn[nH]n2)cc(C(F)(F)F)c1`, the “activity change, negative = inhibition” value was “inactive”.

In the case of `O=C(CSc1ccc(-c2ccccn2)nn1)NC1CCCCC1`, the concentration at half-maximal activity (AC50) is 1630 nM. Still for that read-out and setting: then `CC1CCN(S(=O)(=O)c2ccc(C(=O)Nc3nnc(-c4ccco4)o3)cc2)CC1`, with 34100 nM. In the case of `Cc1ccc(S(=O)(=O)CCc2nnc(NC(=O)c3ccccc3)s2)cc1`, the “activity change, negative = inhibition” value was “inactive”. As to `Cc1ccc(C(=O)Nc2nc(-c3ccccc3)cs2)o1`, the AC50 was > 136000 nM (inactive). Same read-out and setting: in the case of `Cc1ccc(C(=O)Nc2nc(-c3ccccn3)cs2)cc1S(=O)(=O)N1CCOCC1` it was 1110 nM; in that of `CC1CCN(S(=O)(=O)c2ccc(C(=O)Nc3nnc(-c4ccccn4)o3)cc2)CC1`, 39600 nM. Still for that read-out and setting: then `Cc1c(C(=O)N(C)C)sc2nc(-c3ccccn3)[nH]c(=O)c12`, with 1750 nM; and `O=C(Nc1nc(-c2ccccn2)cs1)c1ccc(S(=O)(=O)N2CCOCC2)cc1`, with 342 nM. On the same count and under the same terms, in the case of `O=C(Cc1ccccc1)NC(c1ccco1)c1ccc2cccnc2c1O` (stereo unspecified) it was 1490 nM. For `CC(C)C(=O)NC(c1ccco1)c1cc(Cl)c2cccnc2c1O` (stereo unspecified), the AC50 is 5100 nM.

For `O=C(Nc1nnc(-c2ccc(F)cc2)o1)c1ccc(S(=O)(=O)N2CCCCC2)cc1`, the AC50 is 23000 nM.

Turning to `CCCCC(=O)NC(c1ccco1)c1ccc2cccnc2c1O` (stereo unspecified), the AC50 was 1390 nM. For the molecule `O=C(Nc1nc(-c2ccccn2)cs1)c1ccco1`, the AC50 is 820 nM. On the same count and under the same terms, then `Nc1nc(-c2ccccn2)nc(N)c1Cc1ccc(Cl)cc1Cl`, with 649 nM.

As usually defined, the AC50 is the concentration at which the activity in the assay is half-maximal.
